In patent publication EP4603105A1, “PHARMACEUTICAL COMPOSITION CONTAINING CYCLIC COMPOUND HAVING SELECTIVE KRAS INHIBITORY EFFECT AGAINST HRAS AND NRAS” (CHUGAI SEIYAKU KABUSHIKI KAISHA, priority 2022, dated 2024):
Where a SMILES comes first, the peptide text is derived from it. Bridges are numbered along the chain shown (N, C = ends). [ ]: non-standard residue; d: D form. The star is where a group is joined. hPhe(3,5-F2-4-CF3) = N[C@@H](CCc1cc(F)c(C(F)(F)F)c(F)c1)C(=O)O; NPrPhe(4-CF3) = CCCN[C@@H](Cc1ccc(C(F)(F)F)cc1)C(=O)O; NMeGly(cPent) = CN[C@H](C(=O)O)C1CCCC1; NMeD = CN[C@@H](CC(=O)O)C(=O)O; NMeL = CN[C@@H](CC(C)C)C(=O)O; αMeV = CC(C)[C@](C)(N)C(=O)O; Morpholide = C1CN(*)CCO1; Aze = O=C(O)[C@@H]1CCN1; Sar = CNCC(=O)O

What was measured:
[1] = target: GDP-bound NRAS wild-type protein (Homo sapiens, UniProt P01111); experiment: Binding to NRAS by surface plasmon resonance (SPR), KD and KD ratio to KRAS
Sequence of GDP-bound NRAS wild-type protein (P01111 whole entry): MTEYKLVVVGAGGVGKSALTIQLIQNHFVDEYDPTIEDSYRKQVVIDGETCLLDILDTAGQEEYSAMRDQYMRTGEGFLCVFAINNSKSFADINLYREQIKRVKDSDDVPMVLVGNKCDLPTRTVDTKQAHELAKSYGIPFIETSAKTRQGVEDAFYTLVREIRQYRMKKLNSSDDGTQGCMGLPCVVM
Outline: (§1)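 Single-cycle kinetics on GDP-loaded biotin-Avi RAS captured to ~100–300 RU; 75 s ascending injections, 100 µL/min, 30°C. HBS pH 7.4 + 10 mM MgCl2/10 µM GDP/4% DMSO. 1:1 fit, KD.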

[2] = target: GDP-bound KRAS wild-type protein (Homo sapiens, UniProt P01116); experiment: Binding to KRAS by surface plasmon resonance (SPR), dissociation constant KD
Sequence of GDP-bound KRAS wild-type protein (P01116 1-188 isoform P01116-2): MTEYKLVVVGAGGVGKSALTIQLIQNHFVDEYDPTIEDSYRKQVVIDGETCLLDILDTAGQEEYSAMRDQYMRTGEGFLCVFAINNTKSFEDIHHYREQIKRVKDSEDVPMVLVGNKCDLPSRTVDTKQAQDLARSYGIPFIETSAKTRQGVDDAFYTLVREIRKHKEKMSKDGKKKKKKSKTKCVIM
Outline: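 Read-out is KD from 1:1 fitting of single-cycle kinetics sensorgrams, blank-cycle and reference-surface corrected. Proteins were GDP-loaded, biotinylated Avi-fusions freshly captured each cycle at roughly 100–300 RU. Runs were at 30°C in HBS pH 7.4 with MgCl2, GDP and 4% DMSO.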

[3] = target: HRAS wild-type protein (Homo sapiens, UniProt P01112); experiment: Binding to HRAS by surface plasmon resonance (SPR), KD and KD ratio to KRAS
Sequence of HRAS wild-type protein (P01112 whole entry): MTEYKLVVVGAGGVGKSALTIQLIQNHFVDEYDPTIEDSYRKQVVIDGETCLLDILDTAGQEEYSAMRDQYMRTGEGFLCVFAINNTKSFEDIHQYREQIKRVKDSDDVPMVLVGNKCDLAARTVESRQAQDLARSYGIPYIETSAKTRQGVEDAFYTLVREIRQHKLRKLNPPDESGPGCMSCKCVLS
Outline: as §1

[4] = test system: human lung cancer strain NCI-H441; type: cell-based
Outline: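 Proliferation was scored by […] measured after the reagent was added to cultures kept at 37°C in 5% carbon dioxide.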

[5] = ratio of KD value for GDP-bound NRAS wild-type protein to KD value for KRAS (SPR)
[6] = Single Cycle Kinetics, 1:1 binding model
[7] = ratio of KD value for HRAS wild-type protein to KD value for KRAS (SPR)
[8] = ratio of the KD value with respect to GDP-bound NRAS wild-type protein to the KD value with respect to KRAS
[9] = ratio of the KD value with respect to HRAS wild-type protein to the KD value with respect to KRAS
[10] = ratio of KD for GDP-bound NRAS wild-type protein to KD for KRAS
[11] = ratio of KD for HRAS wild-type protein to KD for KRAS

Compound | NRAS /KRAS [1, 5] | Kd [2, 6] [nM] | HRAS /KRAS [3, 7] | IC50 [4] [nM] | NRAS /KRAS [1, 8] | HRAS /KRAS [3, 9] | NRAS /KRAS [1, 10] | Kd ([2]; 1:1 binding model) [nM] | HRAS /KRAS [3, 11] | Kd ([2]; Single Cycle Kinetics) [nM]
CCCC[C@H]1C(=O)N[C@@H]([C@@H](C)CC)C(=O)N(C)CC(=O)N(C)[C@H]2C/C=C\CCN(C2=O)[C@@H](Cc2ccc(C(F)(F)F)cc2)C(=O)N(C)CC(=O)N[C@@H](CCc2cc(F)c(C(F)(F)F)c(F)c2)C(=O)N2C[C@H](OCC)C[C@H]2C(=O)NC2(CCC2)C(=O)N(C)[C@@H](C2CCCC2)C(=O)N(C)[C@H](C(=O)N(CC)CC)CC(=O)N1C [PP1576] | AA (a compound having 20 or more is denoted as AA) | 0.14 | A (a compound having 10 or more and less than 20 is denoted as A) | 7.6 | – | – | – | – | – | –
CC[C@H](C)[C@@H]1NC(=O)[C@H](CC(C)C)N(C)C(=O)C[C@@H](C(=O)N2CCOCC2)N(C)C(=O)[C@H](C2CCCC2)N(C)C(=O)C2(CCCC2)NC(=O)[C@@H]2CCCN2C(=O)[C@H](CCc2ccc(C(F)(F)F)c(Cl)c2)NC(=O)CN(C)C(=O)[C@H](Cc2ccc(OC)cc2)N2C/C=C\CC[C@@H](C2=O)N(C)C(=O)CN(C)C1=O [PP0609] | – | 3.9 | – | 468 | B (a compound having 3 or more and less than 10 is denoted as B) | B (a compound having 3 or more and less than 10 is denoted as B) | – | – | – | –
CC[C@H](C)[C@@H]1NC(=O)[C@@H]2CCCc3ccc(cc3)C[C@@H](C(=O)N(C)CC(=O)N[C@@H](CCc3ccc(C(F)(F)F)c(OC)c3)C(=O)N3C[C@H](OC(C)C)C[C@H]3C(=O)NC3(CC(C)(C)C3)C(=O)N(C)[C@@H](C3CCCC3)C(=O)N(C)[C@H](C(=O)N(C)CC)CC(=O)N2C)N2CC/C=C\C[C@@H](C2=O)N(C)C(=O)CN(C)C1=O [PP3084] | – | – | – | 3.7 | – | – | A (a compound having 10 or more and less than 20 is denoted as A) | 0.12 | B (a compound having 3 or more and less than 10 is denoted as B) | –
CC[C@@H]1C[C@H]2C(=O)NC3(CCCC3)C(=O)N(C)[C@@H](C3CCCC3)C(=O)N(C)[C@H](C(=O)N(C)C)CC(=O)N(C)[C@@H](CC(C)C)C(=O)N[C@@H]([C@@H](C)CC)C(=O)N(C)CC(=O)N(C)[C@H]3C/C=C\CCN(C3=O)[C@@H](Cc3ccc(C)cc3)C(=O)N(C)CC(=O)N[C@@H](CCc3cc(F)c(C(F)(F)F)c(F)c3)C(=O)N2C1 [PP2191] | – | 0.23 | – | 91.6 | A (a compound having 10 or more and less than 20 is denoted as A) | B (a compound having 3 or more and less than 10 is denoted as B) | – | – | – | –
CCCN(C)C(=O)[C@@H]1CC(=O)N(C)[C@@H](CC)C(=O)N[C@@H]([C@@H](C)CC)C(=O)N(C)CC(=O)N(C)[C@H]2C/C=C\CCN(C2=O)[C@@H](Cc2ccc(C(F)(F)F)cc2)C(=O)N(C)CC(=O)N[C@@H](CCc2ccc(C(F)(F)F)c(OC)c2)C(=O)N2C[C@H](OCC)C[C@H]2C(=O)NC2(CC(C)(C)C2)C(=O)N(C)[C@@H](C2CCCC2)C(=O)N1C [PP1654] | A (a compound having 10 or more and less than 20 is denoted as A) | 0.097 | A (a compound having 10 or more and less than 20 is denoted as A) | 2.5 | – | – | – | – | – | –
CC[C@H](C)[C@@H]1NC(=O)[C@H](COC)N(C)C(=O)C[C@@H](C(=O)N(C)CC)N(C)C(=O)[C@H](C2CCCC2)N(C)C(=O)C2(CC(C)(C)C2)NC(=O)[C@@H]2CC(F)(F)CN2C(=O)[C@H](CCc2ccc(C(F)(F)F)c(Cl)c2)NC(=O)CN(C)C(=O)[C@H](Cc2ccc(C(F)(F)F)cc2)N2CC/C=C\C[C@@H](C2=O)N(C)C(=O)CN(CC)C1=O [PP3135] | – | – | – | 27.6 | – | – | A (a compound having 10 or more and less than 20 is denoted as A) | 1.1 | A (a compound having 10 or more and less than 20 is denoted as A) | –
CCO[C@@H]1C[C@H]2C(=O)NC3(CCC3)C(=O)N(C)[C@@H](C3CCCC3)C(=O)N(C)[C@H](C(=O)N(C)CC)CC(=O)N(C)[C@@H](CC(C)C)C(=O)N[C@@H]([C@@H](C)CC)C(=O)N(C)CC(=O)N(C)[C@H]3C/C=C\CCN(C3=O)[C@@H](Cc3ccc(C(F)(F)F)cc3)C(=O)N(C)CC(=O)N[C@@H](CCc3ccc(C(F)(F)F)c(Cl)c3)C(=O)N2C1 [PP2847] | – | – | – | 7.3 | – | – | A (a compound having 10 or more and less than 20 is denoted as A) | 0.083 | A (a compound having 10 or more and less than 20 is denoted as A) | –
CCCN1C(=O)CN(C)C(=O)[C@@H]2CCN2C(=O)[C@H]([C@@H](C)CC)NC(=O)[C@H](CC(C)C)N(C)C(=O)C[C@@H](C(=O)N2CCOCC2)N(C)C(=O)[C@H](C2CCCC2)N(C)C(=O)[C@](C)(C(C)C)NC(=O)[C@@H]2CCCN2C(=O)[C@H](CCc2cc(F)c(C(F)(F)F)c(F)c2)NC(=O)CN(C)C(=O)[C@@H]1Cc1ccc(C(F)(F)F)cc1 [PP0773] ([NMeL]I[Aze][Sar][NPrPhe(4-CF3)][Sar][hPhe(3,5-F2-4-CF3)]P[αMeV][NMeGly(cPent)][NMeD]-Morpholide; lactam N-11) | – | – | – | 170 | – | – | B (a compound having 3 or more and less than 10 is denoted as B) | – | B (a compound having 3 or more and less than 10 is denoted as B) | 4
CCO[C@@H]1C[C@H]2C(=O)NC3(CCC3)C(=O)N(C)[C@@H](C3CCCC3)C(=O)N(C)[C@H](C(=O)N3CCOCC3)CC(=O)N(C)[C@@H](Cc3cscn3)C(=O)N[C@@H]([C@@H](C)CC)C(=O)N(C)CC(=O)N(C)[C@H]3CCCCCN(C3=O)[C@@H](Cc3ccc(C(F)(F)F)cc3)C(=O)N(C)CC(=O)N[C@@H](CCc3cc(F)c(C(F)(F)F)c(F)c3)C(=O)N2C1 [PP0855] | – | – | – | 114 | – | – | B (a compound having 3 or more and less than 10 is denoted as B) | – | B (a compound having 3 or more and less than 10 is denoted as B) | 0.84
CCC(CC)[C@H]1C(=O)N(C)[C@H](C(=O)N(C)C)CC(=O)N(C)[C@@H](COC)C(=O)N[C@@H]([C@@H](C)CC)C(=O)N(C)CC(=O)N(C)[C@H]2C/C=C\CCN(C2=O)[C@@H](Cc2ccc(C)cc2)C(=O)N(C)CC(=O)N[C@@H](CCc2ccc(C(F)(F)F)c(Cl)c2)C(=O)N2CCCC[C@H]2C(=O)NC2(CC(C)(C)C2)C(=O)N1C [PP2931] | – | – | – | 65.5 | – | – | A (a compound having 10 or more and less than 20 is denoted as A) | 1.9 | A (a compound having 10 or more and less than 20 is denoted as A) | –
CCO[C@@H]1C[C@H]2C(=O)NC3(CC(C)(C)C3)C(=O)N(C)[C@@H](C3CCCC3)C(=O)N(C)[C@H](C(=O)N(C)C)CC(=O)N(C)[C@@H]([C@H](C)OC)C(=O)N[C@@H]([C@@H](C)CC)C(=O)N3CCC[C@H]3C(=O)N(C)[C@H]3C/C=C\CCN(C3=O)[C@@H](Cc3ccc(C)cc3)C(=O)N(C)CC(=O)N[C@@H](CCc3cc(F)c(C(F)(F)F)c(F)c3)C(=O)N2C1 [PP3199] | – | – | – | 49.6 | – | – | A (a compound having 10 or more and less than 20 is denoted as A) | 0.8 | A (a compound having 10 or more and less than 20 is denoted as A) | –
CCO[C@@H]1C[C@H]2C(=O)NC3(CC(C)(C)C3)C(=O)N(C)[C@@H](C(CC)CC)C(=O)N(C)[C@H](C(=O)N(C)C)CC(=O)N(C)[C@@H](CC3CC3)C(=O)N[C@@H]([C@@H](C)CC)C(=O)N(C)CC(=O)N(C)[C@H]3C/C=C\CCN(C3=O)[C@@H](Cc3ccc(C)cc3)C(=O)N(C)CC(=O)N[C@@H](CCc3ccc(C(F)(F)F)c(Cl)c3)C(=O)N2C1 [PP2142] | – | 0.3 | – | 10.3 | AA (a compound having 20 or more is denoted as AA) | A (a compound having 10 or more and less than 20 is denoted as A) | – | – | – | –
